Assay results reported in patent EP3827825A1, “USE OF 3, 4-DIARYLPYRAZOLES AS ANTIBACTERIAL AGENTS” (Wageningen Universiteit, priority 2019, dated 2021).
≈ marks a conversion by molar mass, not a printed value. Like-named read-outs stand apart in the source and are kept apart here.

How the values were obtained:
S. aureus Newman = test: Minimal inhibitory concentration (MIC), double-dilution in broth, OD600; assay type: cell-based, Staphylococcus aureus Newman; conditions: unit assumed
Procedure: (§1) In short, a stock solution of 5 mg/mL of HKIs in DMSO was made. This stock was diluted to 50 µg/mL in broth in a 96 well plate. Dilutions were made (factor 2) directly in the plate with a multi-channel pipet. Bacteria cultured in suspension overnight were then added to the plate (except negative control) and the plate was incubated for 24 hours. After 24 hours the OD600 was measured using a spectrophotometer. A positive control (with bacteria, without HKI) was also measured on each plate.
Bacterial strains used in this study for antibacterial susceptibility testing (Table S2) were propagated using standard microbiological procedures. Minimal inhibitory concentrations (MICs) were determined following a standard double-dilution method (42), 73. […] For M. marinum, MICs were determined in Middlebrook 7H9 broth (Difco) and MICs were determined after 3 days incubation at 30 °C.
(§2) Grow the bacterial colonies to be tested from single colonies on an agar plate in LB broth or suitable bacterial growth medium overnight at 37°C. Prepare a 5 mg/mL stock solution of compounds to be tested in DMSO. One 96-well plate per bacterial strain was prepared. First, put 50 uL of medium to each well. Add 48 µL of medium to all wells in row A. Pipet 2 µL of antimicrobial master stock into the top well (row A). Beware, the antimicrobial concentration will be diluted 2x after adding the bacterial culture. Total volume in each well will be 100 µL. In A11, pipet 2 µL of DMSO. Make a serial dilution from row A to row H, pipetting 50 µL from the previous row into the new one. Mix well by pipetting up and down. Discard the last 50 µL so that there is 50 µl in each well In a clean, new plastic pipetting cup, dilute the overnight bacterial culture 100 times. Add 100 µL of bacterial overnight culture to 9900 µL of medium. Mix the suspension well. Once the serial dilutions are complete for all antimicrobial compounds, add 50 µL of diluted overnight bacterial culture to each well (except column 12). Mix by pipetting or put the plate on the shaker. Per 2 plates, close with parafilm around the edges and place in the incubator overnight. After overnight culturing, measure bacterial growth on the SpectraMax. The lowest concentration where no growth is observed is the MIC. To determine the MIB pipette 5 µL from each well of the 96 well plate where now growth was observed on to an LB agar plate, without antimicrobial. Put the plates in the incubator to grow overnight. The minimal concentration where no growth can be seen on the agar plate is the MBC.

S. suis = test: as above; assay type: cell-based, Streptococcus suis; conditions: unit assumed
Procedure: as §1, with “each plate. The MICs were not determined in duplo/triplicate in the same experiment, however, the MICs of several HKIs were measured in different experiments and no major differences (max. 1x dilution) were found in the MICs between the experiments.” for “each plate.”
(§3) Bacterial strains used in this study for antibacterial susceptibility testing (Table S2) were propagated using standard microbiological procedures. Minimal inhibitory concentrations (MICs) were determined following a standard double-dilution method (42), 73. MICs were recorded as the lowest concentration of the compound where no visible growth was observed. After plating the dilutions around the MIC or growing them in fresh MH media, minimal bactericidal concentration (MBC) was recorded as the lowest concentration of the compound at which no colonies were formed or no growth was observed, respectively. For M. marinum, MICs were determined in Middlebrook 7H9 broth (Difco) and MICs were determined after 3 days incubation at 30 °C.
as §2

P. multocida = test: as above; assay type: cell-based, Pasteurella multocida; conditions: unit assumed
Procedure: as §1, with “each plate. The MICs were not determined in duplo/triplicate in the same experiment, however, the MICs of several HKIs were measured in different experiments and no major differences (max. 1x dilution) were found in the MICs between the experiments.” for “each plate.”
as §3, §2

M. marinum = test: Minimal inhibitory concentration (MIC), Middlebrook 7H9 broth, 3 days at 30 °C; assay type: cell-based, Mycobacterium marinum; conditions: unit assumed
Procedure: as §1, with “each plate. The MICs were not determined in duplo/triplicate in the same experiment, however, the MICs of several HKIs were measured in different experiments and no major differences (max. 1x dilution) were found in the MICs between the experiments.” for “each plate.”
as §3, §2

E. coli JW5503 = assay type: cell-based, Escherichia coli; conditions: unit assumed
Procedure: as §1, with “each plate. The MICs were not determined in duplo/triplicate in the same experiment, however, the MICs of several HKIs were measured in different experiments and no major differences (max. 1x dilution) were found in the MICs between the experiments.” for “each plate.”
as §3, §2

E. faecium Van A = test: Minimal inhibitory concentration (MIC), double-dilution in broth, OD600; assay type: cell-based, Enterococcus faecium; conditions: unit assumed
Procedure: as §1, with “each plate. The MICs were not determined in duplo/triplicate in the same experiment, however, the MICs of several HKIs were measured in different experiments and no major differences (max. 1x dilution) were found in the MICs between the experiments.” for “each plate.”
as §3, §2

HEK293 = test: Cell toxicity, Alamar blue assay, 24 hours exposure; assay type: cell-based; conditions: for IC50: Homo sapiens
Procedure: (§4) Toxicity was primarily determined by measuring cytotoxicity with the Alamar blue assay. In short, cells (HEK293, NRK-52E and Caco-2) were plated in 96-well plates and cultured overnight. HKI compounds were diluted to concentrations ranging from 0.39 to 500 µg/mL in serum-free medium and added to the cells.
(§5) After exposure, cells were incubated for 24 hours. Experiments were mostly performed by single measurement. […] After 24 hours HKIs were removed from the cells and Alamar blue was added, incubated for 45 minutes and fluorescence was measured on a spectrophotometer. Alamar blue measures the conversion of blue, low fluorescent resazurin into high fluorescent pink resorufin. This conversion can only be made in viable mitochondria in viable cells and therefore this dye provides a measure for cytotoxicity.

NRK-52E = test: as above; assay type: cell-based; conditions: for IC50: Rattus norvegicus, read-out: IC50 NRK-52E (50 mg/mL stock)
Procedure: as §4, §5

[1] = HEK293, read-out: IC50 HEK293 (50 mg/mL stock)
[2] = HEK293, read-out: IC50 HEK293 (5 mg/mL stock)

Row | SMILES | MIC S. aureus Newman (S. aureus Newman) [µg/mL] | MIC S. suis (S. suis) [µg/mL] | MIC P. multocida (P. multocida) [µg/mL] | MIC M. marinum (M. marinum) [µg/mL] | MIC E. coli JW5503 (E. coli JW5503) [µg/mL] | MIC E. faecium Van A (E. faecium Van A) [µg/mL] | IC50 (HEK293; [1]) [µg/mL] | IC50 (NRK-52E) [µg/mL] | IC50 (HEK293; [2]) [µg/mL] | IC50 HEK293 (50 mg/mL stock) (HEK293) | IC50 NRK-52E (50 mg/mL stock) (NRK-52E) | IC50 HEK293 (5 mg/mL stock) (HEK293)
1 | O=[N+]([O-])c1ccc(COc2ccc(-c3n[nH]c(C(F)(F)F)c3-c3ccc(Br)cc3)c(O)c2)cc1 [May-11, 2-[4-(4-bromophenyl)-5-(trifluoromethyl)-1∼{H}-pyrazol-3-yl]-5-(4-nitrobenzyl)oxyphenol] | 1.56 (≈ 2.92 µM) | 3.13 (≈ 5.86 µM) | > 50 | 12.5 (≈ 23.4 µM) | > 50 | 1.56 (≈ 2.92 µM) | 6.2 (≈ 11.6 µM) | ~3.91 (≈ 7.32 µM) | – | – | – | –
2 | CCOc1ccc(-c2[nH]nc(C(F)(F)F)c2-c2ccc(Br)cc2)c(O)c1 [May-6, 2-[4-(4-bromophenyl)-5-(trifluoromethyl)-1∼{H}-pyrazol-3-yl]-5-ethoxy-phenol] | 1.56 (≈ 3.65 µM) | 3.13 (≈ 7.33 µM) | > 50 | 50 (≈ 117 µM) | 3.13 (≈ 7.33 µM) | 3.13 (≈ 7.33 µM) | – | ~563 (≈ 1320 µM) | 4.53 (≈ 10.6 µM) | – | – | –
3 | Oc1cc(OCc2ccc(Br)cc2)ccc1-c1n[nH]c(C(F)(F)F)c1-c1ccc(Cl)cc1 [May-18, 5-(4-bromobenzyl)oxy-2-[4-(4-chlorophenyl)-5-(trifluoromethyl)-1∼{H}-pyrazol-3-yl]phenol] | 0.78 (≈ 1.49 µM) | 3.13 (≈ 5.98 µM) | > 50 | 6.25 (≈ 11.9 µM) | > 50 | 3.13 (≈ 5.98 µM) | – | – | – | 4.7 | 4.568 | –
4 | COc1ccc(-c2c(-c3ccc(OCC(=O)NN)cc3O)n[nH]c2C(F)(F)F)cc1 [May-17, 2-[3-hydroxy-4-[4-(4-methoxyphenyl)-5-(trifluoromethyl)-1∼{H}-pyrazol-3-yl]phenoxy]acetohy drazide] | 25 (≈ 59.2 µM) | 25 (≈ 59.2 µM) | > 50 | > 50 | 6.25 (≈ 14.8 µM) | 25 (≈ 59.2 µM) | – | 22 (≈ 52.2 µM) | 15 (≈ 35.5 µM) | – | – | –
5 | Oc1cc(OCc2ccccc2Cl)ccc1-c1n[nH]c(C(F)(F)F)c1-c1ccc(Cl)cc1 [Sep-25, 5-(2-chlorobenzyl)oxy-2-[4-(4-chlorophenyl)-5-(trifluoromethyl)-1∼{H}-pyrazol-3-yl]pheno] | 3.13 (≈ 6.53 µM) | 12.5 (≈ 26.1 µM) | > 50 | 50 (≈ 104 µM) | > 50 | 12.5 (≈ 26.1 µM) | 18.1 (≈ 37.7 µM) | 17.3 (≈ 36 µM) | 19.3 (≈ 40.2 µM) | – | – | –
6 | C=C(C)COc1ccc(-c2[nH]nc(C(F)(F)F)c2-c2ccccc2)c(O)c1 [Sep-9, 5-(2-methylallyloxy)-2-[4-phenyl-5-(trifluoromethyl)-1∼{H}-pyrazol-3-yl]phenol] | 6.25 (≈ 16.7 µM) | 25 (≈ 66.8 µM) | 50 (≈ 134 µM) | > 50 | 6.25 (≈ 16.7 µM) | 0.78 (≈ 2.08 µM) | – | ~10.9 (≈ 29 µM) | 16.1 (≈ 43.1 µM) | – | – | –
7 | Oc1cc(OCc2ccc(Br)cc2)ccc1-c1n[nH]c(C(F)(F)F)c1-c1ccc(Cl)cc1 [Sep-13, 5-(4-bromobenzyl)oxy-2-[4-(4-chlorophenyl)-5-(trifluoromethyl)-1∼{H}-pyrazol-3-yl]phenol] | 1.56 (≈ 2.98 µM) | 6.25 (≈ 11.9 µM) | > 50 | 25 (≈ 47.7 µM) | > 50 | 12.5 (≈ 23.9 µM) | – | – | – | – | 10.89 | 16.51
8 | Oc1ccc(-c2n[nH]c(C(F)(F)F)c2-c2ccc(Br)cc2)c(O)c1 [AND-1, 4-[4-(4-bromophenyl)-5-(trifluoromethyl)-1∼{H}-pyrazol-3-yl]resorcinol] | 3.13 (≈ 7.84 µM) | 12.5 (≈ 31.3 µM) | 25 (≈ 62.6 µM) | > 50 | 1.56 (≈ 3.91 µM) | 12.5 (≈ 31.3 µM) | – | – | – | 14.7 | ∼3.86 | 6.94
9 | COc1ccc(-c2c(C(F)(F)F)n[nH]c2-c2ccc(OCc3ccccc3)cc2O)cc1 [May-26, 5-benzoxy-2-[4-(4-methoxyphenyl)-5-(trifluoromethyl)-1∼{H}-pyrazol-3-yl]phenol] | 1.56 (≈ 3.54 µM) | 3.13 (≈ 7.11 µM) | > 50 | 12.5 (≈ 28.4 µM) | 3.13 (≈ 7.11 µM) | – | 4.8 (≈ 10.9 µM) | 9.64 (≈ 21.9 µM) | – | – | – | –
10 | COc1ccc(-c2n[nH]c(C(F)(F)F)c2-c2ccccc2OC)c(O)c1 [May-19, 5-methoxy-2-[4-(2-methoxyphenyl)-5-(trifluoromethyl)-1∼{H}-pyrazol-3-yl]phenol] | 25 (≈ 68.6 µM) | 25 (≈ 68.6 µM) | 50 (≈ 137 µM) | 50 (≈ 137 µM) | – | > 50 | – | 24.1 (≈ 66.1 µM) | 5.74 (≈ 15.8 µM) | – | – | –
11 | COc1ccc(-c2n[nH]c(C(F)(F)F)c2-c2ccc(Cl)cc2)c(O)c1 [May-16, 2-[4-(4-chlorophenyl)-5-(trifluoromethyl)-1∼{H}-pyrazol-3-yl]-5-methoxy-phenol] | 3.13 (≈ 8.49 µM) | 3.13 (≈ 8.49 µM) | 25 (≈ 67.8 µM) | 50 (≈ 136 µM) | 1.56 (≈ 4.23 µM) | – | – | – | 3.59 (≈ 9.74 µM) | – | – | –
12 | COc1ccc(-c2n[nH]c(C(F)(F)F)c2-c2ccccc2)c(O)c1 [May-21, 5-methoxy-2-[4-phenyl-5-(trifluoromethyl)-1∼{H}-pyrazol-3-yl]phenol] | 12.5 (≈ 37.4 µM) | 25 (≈ 74.8 µM) | 50 (≈ 150 µM) | > 50 | 3.13 (≈ 9.36 µM) | – | 46.9 (≈ 140 µM) | ~15.6 (≈ 46.8 µM) | 6.47 (≈ 19.4 µM) | – | – | –
13 | CCOc1ccc(-c2n[nH]c(C(F)(F)F)c2-c2ccccc2)c(O)c1 [May-22, 5-ethoxy-2-[4-phenyl-5-(trifluoromethyl)-1∼{H}-pyrazol-3-yl]phenol] | 3.13 (≈ 8.99 µM) | 6.25 (≈ 17.9 µM) | 50 (≈ 144 µM) | > 50 | – | > 50 | 19.9 (≈ 57.1 µM) | 19.2 (≈ 55 µM) | 5.8 (≈ 16.7 µM) | – | – | –
14 | COc1ccc(-c2n[nH]cc2-c2ccc(Cl)cc2)c(O)c1 [Sep-23, 2-[4-(4-chlorophenyl)-1∼{H}-pyrazol-5-yl]-5-methoxy-phenol] | 25 (≈ 83.1 µM) | > 50 | > 50 | > 50 | – | > 50 | 39.7 (≈ 132 µM) | 259 (≈ 861 µM) | 9.14 (≈ 30.4 µM) | – | – | –
15 | NNC(=O)COc1ccc(-c2[nH]nc(C(F)(F)F)c2-c2ccccc2)c(O)c1 [May-25, 2-[3-hydroxy-4-[4-phenyl-5-(trifluoromethyl)-1∼{H}-pyrazol-3-yl]phenoxy]acetohy drazide] | 12.5 (≈ 31.9 µM) | – | 50 (≈ 127 µM) | – | 6.25 (≈ 15.9 µM) | 25 (≈ 63.7 µM) | – | 106 (≈ 271 µM) | 27.6 (≈ 70.3 µM) | – | – | –
